Key:
[1] = tested on: AHAS extracted from wild type and tolerant wheat plants; assay: In vitro AHAS enzyme activity in the presence of imidazolinone herbicide; type: biochemical, Triticum aestivum
Description: Because the tolerance in K-42 and Br-8 is due to a mutation in the AHAS enzyme rendering it resistant to inhibition by imidazolinone herbicides, the in vitro activity of AHAS extracted from wild type plants (not having the mutation for tolerance) can be compared to the in vitro activity of AHAS extracted from tolerant plants in the presence of varying concentrations of an imidazolinone herbicide. K-42 was compared to the wild type variety Krichauff, and Br-8 was compared to the wild type variety Brookton. […] As explained in Example 2, the in vitro AHAS enzyme activity can be compared among lines with and without a mutation conferring resistance to inhibition by imidazolinone herbicides. […]

[2] = tested on: wheat plants (K-42, Br-8, K-42/Br-8, wild type Krichauff and Brookton); assay: Greenhouse herbicide tolerance, injury scored on a 0-9 scale; type: in vivo, Triticum aestivum; settings: 40 and 120 g/ha
Experimental: Tolerance of K-42 and Br-8 to the imidazolinone herbicide imazamox was evaluated at 40 and 120 g/ha in the greenhouse. Wild type Krichauff and Brookton were used as herbicide susceptible controls. 24 plants were treated at each rate at the 2-3 leaf stage. Injury was scored on a 0-9 scale, 0 representing no injury and 9 representing plant death. FIG. 4 summarizes the data collected 14 and 21 days after treatment. In Example 1, reference was made to crosses between K-42, containing a mutation in Als3 conferring imidazolinone herbicide tolerance, and FS-2 and Br-8, each containing a mutation in Als1 also conferring imidazolinone herbicide tolerance. Krichauff and Brookton are the wheat varieties from which K-42 and Br-8, respectively, were derived. Lines derived from the K-42/FS-2 cross were tolerant to rates of up to six times that required for economic weed control in the field. One line derived from the K-42/Br-8 cross was evaluated in the greenhouse for tolerance to 40 and 120 grams/hectare of irnazamox. Injury was scored on a 0-9 scale, 0 representing no injury and 9 representing plant death.

[3] = tested on: Triticum aestivum wheat lines K-42 and Br-8; assay: Seed soak and spray selection of mutagenised wheat lines for imazamox tolerance; type: in vivo; settings: M3 seed soaked in 50 ppm solution for 24 hours, subsequent plants sprayed with 50 ppm
Experimental: 840 grams of seed of the Triticum aestivuni wheat varieties Krichauff and Brookton were soaked in a sodium azide solution (0.065 g/L) to produce M1 seed. M1 plants were allowed to self pollinate to produce M2 seed. M2 seed were soaked in a 50 ppm solution of the imidazolinone herbicide imazamox for 24 hours prior to sowing in the field. Resultant plants that appeared to have normal growth eight to nine weeks after sowing were transplanted from the field to a greenhouse for M3 seed production. To confirm herbicide tolerance, M3 seed were soaked in a 50 ppm solution of imazamox for 24 hours prior to sowing, and subsequent plants were sprayed with a solution of 50 ppm of imazamox.

SMILES | Percent uninhibited AHAS activity in the Br-8/K-42 combination (FIG. 7) ([1]; four highest herbicide concentrations, compared with Br-8, K-42 and wild type) | Residual uninhibited AHAS in Br-8 and K-42 ([1]; 100 μM imazamox) | Uninhibited AHAS enzyme activity with increasing herbicide concentration (FIG. 5) ([1]; wild type Krichauff and Brookton versus K-42 and Br-8) | Resistance and injury of K-42 and BR-8 relative to wild type counterparts (FIG. 4) ([2]; 2-3 leaf stage, 14 and 21 days after treatment) | Tolerance and injury of the line derived from the K-42/Br-8 cross (FIG. 6) ([2]; injury 0-9 scale) | Herbicide tolerance of M2-derived lines K-42 and Br-8 [3]
CCc1cnc(C2=NC(C)(C(C)C)C(=O)N2)c(C(=O)O)c1 (stereo not drawn) [imazethapyr] | increase in percent uninhibited AHAS activity | – | – | – | – | –
COCc1cnc(C2=NC(C)(C(C)C)C(=O)N2)c(C(=O)O)c1 (stereo not drawn) [imazamox] | – | sufficient to provide a herbicide tolerant response | decreased faster in wild type lines than in either Br-8 or K-42 | increased resistance and decreased injury | greatly enhanced tolerance at both 40 and 120 g/ha with very little injury | identified as tolerant to imazamox
